The results in this text go back to patent US9808008B2, “Synergistic pesticidal compositions and related methods” (Dow AgroSciences LLC, priority 2013, dated 2017).

Assay type in all cases: in vivo
Experiment [1] has as its system Western plant bug (Lygus bug), Lygus hesperus (Knight). Kind of experiment: Treated bean piece bioassay against Western plant bug (Lygus bug), synergy by Colby's equation. The conditions noted are these: Lygus bugs. The source says: The method described in Colby S. R., “Calculating Synergistic and Antagonistic Responses of Herbicide Combinations,” Weeds, 1967, 15, 20-22 was used to determine an existence of synergic effect between the nAChR allosteric activator compound and the pesticide (I), (II), or any agriculturally acceptable salt thereof in the formulated pesticidal composition. In this method, the percent insect control of the formulated pesticidal composition as observed in the study was compared to the “expected” percent control (E) as calculated by equation (1) (hereinafter “Colby's equation”) below: [formula] where X is the percentage of control with the first pesticide at a given rate (p), Y is the percentage of control with the second pesticide at a given rate (q), and E is the expected control by the first and second pesticide at a rate of p+q. […] A pesticidal composition was prepared by thoroughly mixing about 0.04 weight % of compound I with about 0.00125 weight % of spinetoram. The active compounds were formulated in a 10% acetone solution with 0.025% non-ionic surfactant, TWEEN® 20. Bioassays were performed for each different active solution. Bean pieces (about one inch-long) were used for the tests. Four bean pieces were placed in each tested active solution and left there for 10 minutes. Bean pieces were taken out of the active solution, and each piece was placed in a well in a 32-well tray and allowed to air dry. Three third-instar nymphs of Western plant bug (Lygus bug), Lygus hesperus (Knight), were infested into each well. The percent control of the pesticidal composition against Lygus bug was determined as the “Observed” action, and compared to those obtained by using about 0.04 weight % of compound I, and using about 0.00125 weight % of spinetoram alone. The “Colby's Expected Action” was calculated using Colby's equation as discussed previously. A pesticidal composition was prepared by thoroughly mixing about 0.04 weight % of compound I with about 0.005 weight % of spinetoram. The bioassays were performed wherein different active compounds were tested against Western plant bug (Lygus bug), Lygus hesperus (Knight), using the procedure described in example 4A.

For experiment [2], the system named is cotton aphid, Aphis gossypii (Glover). Kind of experiment: Track-sprayed cotton plant bioassay against cotton aphid, synergy by Colby's equation. As to conditions: Spinetoram alone, dose rate 0.005 weight %. The source says: The method described in Colby S. R., “Calculating Synergistic and Antagonistic Responses of Herbicide Combinations,” Weeds, 1967, 15, 20-22 was used to determine an existence of synergic effect between the nAChR allosteric activator compound and the pesticide (I), (II), or any agriculturally acceptable salt thereof in the formulated pesticidal composition. In this method, the percent insect control of the formulated pesticidal composition as observed in the study was compared to the “expected” percent control (E) as calculated by equation (1) (hereinafter “Colby's equation”) below: [formula] where X is the percentage of control with the first pesticide at a given rate (p), Y is the percentage of control with the second pesticide at a given rate (q), and E is the expected control by the first and second pesticide at a rate of p+q. […] The percent control of the pesticidal composition against cotton aphid, Aphis gossypii (Glover), was determined as the “Observed” action, and compared to those obtained by using about 0.0020 weight % of compound II, and using about 0.005 weight % of spinetoram alone. The “Colby's Expected Action” was calculated using Colby's equation as discussed previously.

For experiment [3], the system named is diamondback moth, Plutella xylostella. Kind of experiment: Track-sprayed cabbage plant bioassay against diamondback moth, synergy by Colby's equation. The conditions noted are these: Spinetoram alone, dose rate 0.0003125 weight %. The source says: The method described in Colby S. R., “Calculating Synergistic and Antagonistic Responses of Herbicide Combinations,” Weeds, 1967, 15, 20-22 was used to determine an existence of synergic effect between the nAChR allosteric activator compound and the pesticide (I), (II), or any agriculturally acceptable salt thereof in the formulated pesticidal composition. In this method, the percent insect control of the formulated pesticidal composition as observed in the study was compared to the “expected” percent control (E) as calculated by equation (1) (hereinafter “Colby's equation”) below: [formula] where X is the percentage of control with the first pesticide at a given rate (p), Y is the percentage of control with the second pesticide at a given rate (q), and E is the expected control by the first and second pesticide at a rate of p+q. […] Bioassays were performed for different active compounds. Cabbage plants with about two to three new-growth-true leaf stage were treated with different active compounds using a track sprayer at a volume of 400 L/Ha. Three second instar diamondback moth, Plutella xylostella, were infested onto each leaf disc. […] The “Colby's Expected Action” was calculated using Colby's equation as discussed previously.

Experiment [4] has as its system South American brown stink bug, Euschistus heros. Description: Treated bean piece bioassay against South American brown stink bug, synergy by Colby's equation. As to conditions: Spinetoram alone, dose rate 0.0000039 weight %. From the text: The method described in Colby S. R., “Calculating Synergistic and Antagonistic Responses of Herbicide Combinations,” Weeds, 1967, 15, 20-22 was used to determine an existence of synergic effect between the nAChR allosteric activator compound and the pesticide (I), (II), or any agriculturally acceptable salt thereof in the formulated pesticidal composition. In this method, the percent insect control of the formulated pesticidal composition as observed in the study was compared to the “expected” percent control (E) as calculated by equation (1) (hereinafter “Colby's equation”) below: [formula] where X is the percentage of control with the first pesticide at a given rate (p), Y is the percentage of control with the second pesticide at a given rate (q), and E is the expected control by the first and second pesticide at a rate of p+q. […] The percent control of the pesticidal composition against South American brown stink bug, Euschistus heros, was determined as the “Observed” action, and compared to those obtained by using about 0.04 weight % of compound I, and using about 0.0000039 weight % of spinetoram alone. The “Colby's Expected Action” was calculated using Colby's equation as discussed previously.

For the compound `CCN(C(=O)CCSCCC(F)(F)F)c1cn(-c2cccnc2)nc1Cl` [Compound I, N-(3-chloro-1-(pyridin-3-yl)-1H-pyrazol-4-yl)-N-ethyl-3-((3,3,3-trifluoropropyl)thio)propanamide], the “% Control Three Days After Treatment” value in experiment [1] (Example 8A, Compound I alone, dose rate 0.04 weight %) was “no control”; in experiment [1] (Example 8B, Compound I alone, dose rate 0.04 weight %) it was 0%; in experiment [1] (Example 8B, Compound I alone, dose rate 0.04 weight %, listed as compound I) it was “no control”.
On to Spinetoram, for which the “% Control Three Days After Treatment” value was 2% in experiment [2]; 54.17% in experiment [3]; 0% in experiment [1] (Example 8A, Spinetoram alone, dose rate 0.00125 weight %); “no control” in experiment [1] (Example 8A, Spinetoram alone, dose rate 0.00125 weight %, listed as spinetoram); 0% in experiment [1] (Example 8B, Spinetoram alone, dose rate 0.005 weight %); “no control” in experiment [1] (Example 8B, Spinetoram alone, dose rate 0.005 weight %, listed as spinetoram). Besides, in experiment [4], the “% Control Four Days After Treatment” value is given as 25%.
